In article PMC10376326, “Novel Acylselenourea Derivatives: Dual Molecules with Anticancer and Radical Scavenging Activity” (Antioxidants, 2023):
Read-outs that look alike come from different tables or passages of the source.

What was measured:
[1] = DPPH radical scavenging assay; assay type: biochemical
Summary of the method: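 Acylselenoureas at 0.003 and 0.03 mg/mL (final dilutions from DMSO stock, via methanol) mixed with DPPH• prepared at 0.04 mg/mL in methanol. Absorbance decrease at 517 nm followed 0–120 min; % scavenging calculated relative to negative control, triplicates.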

[2] = system: HTB-54 (lung) cancer cell line; experiment: MTT cell viability assay, HTB-54; assay type: cell-based, human; conditions: for activity at 10 µM: read-out: Cell growth %, HTB-54, 10 µM, 48 h, MTT; for activity at 50 µM: read-out: Cell growth %, HTB-54, 50 µM, 48 h, MTT; for SI: IC50 (BEAS-2B)/IC50 (HTB-54)
[3] = system: MDA-MB-231 (breast) cancer cell line; experiment: MTT cell viability assay, MDA-MB-231; assay type: cell-based, human; conditions: Homo sapiens, MDA-MB-231, 48 h; for activity at 10 µM: read-out: Cell growth %, MDA-MB-231, 10 µM, 48 h, MTT; for activity at 50 µM: read-out: Cell growth %, MDA-MB-231, 50 µM, 48 h, MTT; for IC50: read-out: IC50 MDA-MB-231
Summary of the method: (§1)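 MDA-MB-231, HTB-54 and DU-145 grown in RPMI 1640, HT-29 in McCoy's 5A (10% FBS). Output is % cell growth; IC50 determined; ≥3 experiments in quadruplicate.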

[4] = system: DU-145 (prostate) cancer cell line; experiment: MTT cell viability assay, DU-145; assay type: cell-based, human; conditions: Homo sapiens, DU-145, 48 h; for activity at 10 µM: read-out: Cell growth %, DU-145, 10 µM, 48 h, MTT; for activity at 50 µM: read-out: Cell growth %, DU-145, 50 µM, 48 h, MTT; for IC50: read-out: IC50 DU-145
Summary of the method: as §1

[5] = system: non-malignant BEAS-2B lung cell line; experiment: MTT cell viability assay, BEAS-2B; assay type: cell-based; conditions: Homo sapiens, normal lung, 48 h
Experimental: Cell lines were purchased from the American Type Culture Collection (ATCC). Cell lines MDA-MB-231, HTB-54, DU-145, and BEAS-2B were cultured in RPMI 1640 medium (Gibco, Thermo Fisher Scientific, Gaithersburg, MD, USA) supplemented with 10% fetal bovine serum (FBS; Gibco), 100 units/mL penicillin, and […] streptomycin (Gibco). HT-29 cell line was grown in McCoy’s 5A (Gibco), 10% FBS, 100 units/mL penicillin, and 100 μg/mL streptomycin. Cells were maintained at 37 °C and 5% CO2. The culture medium was changed every three days.
The cell viability of each compound was measured by MTT colorimetric assay. Each compound was dissolved in DMSO at a concentration of 0.01 M. Each compound was tested at two different concentrations (10 and 50 µM) in MDA-MB-231 (breast), HTB-54 (lung), DU-145 (prostate), and HT-29 (colon) human cancer cell lines. Serial dilutions were prepared with supplemented culture medium. […] IC50 and selectivity indexes (SI) were determined.
Briefly, 1 × 10^4 tumor cells per well were grown in 96-well plates for 24 h. Then, these cells were incubated for 48 h with either DMSO (control) or a different concentration of each of the tested compounds. The cell viability was determined by adding 20 μL of MTT two hours and a half before the termination point. After this time, the culture medium was removed. The resulting formazan crystals were dissolved in 50 μL of DMSO, and the absorbance was measured at 570 nm. Results are expressed as % cell growth. The data were obtained from at least three independent experiments performed in quadruplicate.

[6] = system: MDA-MB-231, HT-29, HTB-54 and DU-145 cancer cell lines; experiment: MTT cell viability assay, statements over the panel of cancer cell lines; assay type: cell-based, human; conditions: for IC50: Homo sapiens, span over HTB-54, MDA-MB-231 and DU-145; for cell growth: in at least three of the four cancer cell lines tested
Summary of the method: as §1

DU-145 cells = experiment: Annexin V & Dead Cell apoptosis assay; assay type: cell-based, human; conditions: DU-145, 10 µM, 24 h
Experimental: Induction of apoptosis was assayed using Annexin V & Dead Cell assay kit and Caspase 3/7 assay kit (EMD Millipore, Darmstadt, Germany). DU-145 cells were seeded in 6-well plates at a density of 6 × 10^5 cells/well and treated either with DMSO (control) or 10 µM of compounds 1.I and 5.I and incubated for 24 h. At the end of treatment, cells were harvested and processed with appropriate staining according to the manufacturer’s protocol. For the Caspase 3/7 assay, cells were stained with 5 μL of Muse™ Caspase 3/7 working solution and incubated at 37 °C for 30 min. After incubation, […] of Muse™ Caspase 7-AAD working solution was added and the samples were incubated for another 5 min at room temperature in the dark. For Annexin V assay, cells were stained with 100 μL pf Muse™ Annexin V & Dead Cell Reagent and incubated for 20 min at room temperature in the dark prior to analysis. Samples were further analyzed on a Muse™ Cell Analyzer (Merck Millipore, Darmstadt, Germany) using Muse™ 1.4 software. Data were obtained from at least two independent experiments.

[7] = Homo sapiens, HTB-54, 48 h, read-out: IC50 HTB-54, Lung, MTT, 48 h

SMILES: CCCNC(=[Se])NC(=O)c1ccco1 [Compound 1.I, N-(propylcarbamoselenoyl)furan-2-carboxamide]
- inhibition ([1]; 0.003 mg/mL, 0 min): 0%
- inhibition ([1]; 0.003 mg/mL, 5 min): 1.1 ± 2%
- inhibition ([1]; 0.003 mg/mL, 15 min): 3.5 ± 2%
- inhibition ([1]; 0.003 mg/mL, 30 min): 6.6 ± 2%
- inhibition ([1]; 0.003 mg/mL, 60 min): 11.7 ± 2.3%
- inhibition ([1]; 0.003 mg/mL, 90 min): 15.5 ± 2.5%
- inhibition ([1]; 0.003 mg/mL, 120 min): 17.5 ± 2.3%
- time to reach the highest DPPH inhibition ([1]; 0.03 mg/mL): 60 min
- inhibition ([1]; 0.03 mg/mL, 0 min): 1.8 ± 1.5%
- inhibition ([1]; 0.03 mg/mL, 5 min): 10.3 ± 4.3%
- inhibition ([1]; 0.03 mg/mL, 15 min): 29.7 ± 4.1%
- inhibition ([1]; 0.03 mg/mL, 30 min): 55.4 ± 5.1%
- inhibition ([1]; 0.03 mg/mL, 60 min): 95.4 ± 4.1%
- inhibition ([1]; 0.03 mg/mL, 90 min): 96.5 ± 0.7%
- inhibition ([1]; 0.03 mg/mL, 120 min): 96.4 ± 0.6%
- activity at 10 µM ([2]; Homo sapiens, HTB-54, 48 h): 47.1 ± 14.8%
- activity at 50 µM ([2]; Homo sapiens, HTB-54, 48 h): 31.6 ± 8.2%
- IC50 [2, 7]: < 10 µM
- SI [2]: >12.7
- activity at 10 µM [3]: 46.7 ± 5.6%
- activity at 50 µM [3]: 38 ± 7.8%
- IC50 [3]: 8.8 ± 4.8 µM
- activity at 10 µM [4]: 44.9 ± 4.8%
- activity at 50 µM [4]: 48.7 ± 3.1%
- IC50 [4]: 9.5 ± 2.5 µM
- IC50 [5]: > 100 µM
- IC50 [6]: 7.8 to 15.5 µM
- cell growth [6]: below 55%
- increase of late/dead apoptotic cells with respect to the control (DU-145 cells): about 25%
- viable population reduced by (DU-145 cells): 37%

SMILES: CCCNC(=[Se])NC(=O)c1ccccc1 [Compound 5.I, N-(propylcarbamoselenoyl)benzamide]
- inhibition ([1]; 0.003 mg/mL, 0 min): 1.7 ± 1.1%
- inhibition ([1]; 0.003 mg/mL, 5 min): 2.9 ± 1.1%
- inhibition ([1]; 0.003 mg/mL, 15 min): 4.6 ± 1.2%
- inhibition ([1]; 0.003 mg/mL, 30 min): 6.4 ± 1.3%
- inhibition ([1]; 0.003 mg/mL, 60 min): 9.3 ± 1.4%
- inhibition ([1]; 0.003 mg/mL, 90 min): 11.4 ± 1.5%
- inhibition ([1]; 0.003 mg/mL, 120 min): 13 ± 1.6%
- inhibition ([1]; 0.03 mg/mL, 0 min): 3.2 ± 2.4%
- inhibition ([1]; 0.03 mg/mL, 5 min): 16.6 ± 3.1%
- inhibition ([1]; 0.03 mg/mL, 15 min): 29.8 ± 3.4%
- inhibition ([1]; 0.03 mg/mL, 30 min): 46.1 ± 3.9%
- inhibition ([1]; 0.03 mg/mL, 60 min): 72.6 ± 6.2%
- inhibition ([1]; 0.03 mg/mL, 90 min): 97.7 ± 0.6%
- inhibition ([1]; 0.03 mg/mL, 120 min): 96.7 ± 2.5%
- activity at 10 µM ([2]; Homo sapiens, HTB-54, 48 h): 36.8 ± 8.6%
- activity at 50 µM ([2]; Homo sapiens, HTB-54, 48 h): 27.5 ± 6.5%
- IC50 [2, 7]: < 10 µM
- SI [2]: >11.9
- IC50 ([2]; read-out: IC50 HTB-54, Lung, MTT, 48 h): 8.4 ± 3.9 µM
- activity at 10 µM [3]: 45 ± 12.5%
- activity at 50 µM [3]: 21.3 ± 11.2%
- IC50 [3]: 15.5 ± 6.3 µM
- activity at 10 µM [4]: 42.4 ± 4.9%
- activity at 50 µM [4]: 47.9 ± 3.9%
- IC50 [4]: 11.5 ± 3.4 µM
- IC50 [5]: > 100 µM
- IC50 [6]: 7.8 to 15.5 µM
- cell growth [6]: below 55%
- increase of late/dead apoptotic cells with respect to the control (DU-145 cells): about 25%
- viable population reduced by (DU-145 cells): 37%
